The record followed here is ChEMBL document CHEMBL3745644, “The synthesis and BK channel-opening activity of N-acylaminoalkyloxime derivatives of dehydroabietic acid” (Bioorg Med Chem Lett, 2016).

The structures appear in SMILES notation.

Calcium-activated potassium channel subunit alpha-1 (Homo sapiens), sequence (Q12791 whole entry): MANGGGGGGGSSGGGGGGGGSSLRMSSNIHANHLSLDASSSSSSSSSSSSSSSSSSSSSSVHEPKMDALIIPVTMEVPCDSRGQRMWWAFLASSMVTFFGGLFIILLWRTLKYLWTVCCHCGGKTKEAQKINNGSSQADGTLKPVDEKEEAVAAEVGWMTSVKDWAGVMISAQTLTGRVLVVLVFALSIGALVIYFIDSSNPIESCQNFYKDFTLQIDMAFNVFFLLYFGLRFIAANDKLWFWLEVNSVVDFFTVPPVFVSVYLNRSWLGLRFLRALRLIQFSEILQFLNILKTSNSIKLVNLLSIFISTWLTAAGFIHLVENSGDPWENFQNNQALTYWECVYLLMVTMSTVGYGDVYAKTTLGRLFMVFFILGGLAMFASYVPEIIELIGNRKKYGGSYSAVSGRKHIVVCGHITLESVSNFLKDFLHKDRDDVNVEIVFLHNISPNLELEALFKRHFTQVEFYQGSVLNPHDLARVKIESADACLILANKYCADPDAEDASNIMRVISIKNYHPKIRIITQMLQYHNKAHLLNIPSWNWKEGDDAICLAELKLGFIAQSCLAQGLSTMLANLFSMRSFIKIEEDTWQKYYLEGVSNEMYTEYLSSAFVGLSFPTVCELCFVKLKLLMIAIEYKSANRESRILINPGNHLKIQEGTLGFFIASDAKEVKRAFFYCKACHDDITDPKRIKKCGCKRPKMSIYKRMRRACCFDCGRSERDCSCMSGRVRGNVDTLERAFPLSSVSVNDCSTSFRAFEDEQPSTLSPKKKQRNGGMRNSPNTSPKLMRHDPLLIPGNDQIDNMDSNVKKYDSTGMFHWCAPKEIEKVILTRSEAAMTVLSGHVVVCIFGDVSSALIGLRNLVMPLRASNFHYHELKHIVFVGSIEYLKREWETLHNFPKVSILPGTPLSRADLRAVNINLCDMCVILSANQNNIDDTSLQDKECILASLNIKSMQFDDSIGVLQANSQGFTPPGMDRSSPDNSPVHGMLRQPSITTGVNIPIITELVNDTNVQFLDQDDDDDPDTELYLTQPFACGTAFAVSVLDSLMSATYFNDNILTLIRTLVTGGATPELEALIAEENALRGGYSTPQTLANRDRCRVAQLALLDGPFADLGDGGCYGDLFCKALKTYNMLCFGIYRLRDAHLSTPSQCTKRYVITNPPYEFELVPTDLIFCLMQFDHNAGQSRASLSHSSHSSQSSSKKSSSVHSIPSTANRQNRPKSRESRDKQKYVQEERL

The experiment concerns the target Calcium-activated potassium channel subunit alpha-1 (Homo sapiens) (UniProt Q12791). The experiment in a line: Induction of step pulse-induced human BKalpha channel opening activity expressed in CHO-K1 cells at 30 uM by population patch clamp method relative to control. The format is cell-based. (In general: In patch-clamp work, channel activity is measured electrically.)
On to `COc1cccc(C(=O)NCCO/N=C2\C[C@H]3[C@](C)(C(=O)O)CCC[C@]3(C)c3cc(Br)c(C(C)C)cc32)c1`, for which the Activity amounted to 90.4%.
Under `CC(C)c1cc2c(cc1Br)[C@@]1(C)CCC[C@@](C)(C(=O)O)[C@@H]1C/C2=N\OCCCCCCNC(=O)c1cccs1` stands 97.2%.
For `CCCCCC(=O)NCCO/N=C1\C[C@H]2[C@](C)(C(=O)O)CCC[C@]2(C)c2cc(Br)c(C(C)C)cc21`, the Activity is 146%.
Under `O=c1[nH]c2cc(C(F)(F)F)ccc2n1-c1cc(C(F)(F)F)ccc1O` stands 268%.
In the case of `CC(C)c1cc2c(cc1Br)[C@@]1(C)CCC[C@@](C)(C(=O)O)[C@@H]1C/C2=N\OCCNC(=O)C1CC1` it was 149%; in that of `CC(C)c1cc2c(cc1Br)[C@@]1(C)CCC[C@@](C)(C(=O)O)[C@@H]1C/C2=N\OCCNC(=O)c1ccc(C(F)(F)F)cc1`, 107%.
In the case of `CC(=O)NCCO/N=C1\C[C@H]2[C@](C)(C(=O)O)CCC[C@]2(C)c2cc(Br)c(C(C)C)cc21` it was 140%; in that of `CC(C)c1cc2c(cc1Br)[C@@]1(C)CCC[C@@](C)(C(=O)O)[C@@H]1C/C2=N\OCCNC(=O)c1cc2ccccc2[nH]1`, 89%.
Consider `CC(C)c1cc2c(cc1Br)[C@@]1(C)CCC[C@@](C)(C(=O)O)[C@@H]1C/C2=N\OCCNC(=O)c1ccccc1F`, for which the Activity was 118%.
Regarding `CC(C)c1ccc2c(c1)/C(=N/OCCNC(=O)c1cccs1)C[C@H]1[C@](C)(C(=O)O)CCC[C@]21C`, the Activity stood at 106%.
In the case of `CC(C)c1cc2c(cc1Br)[C@@]1(C)CCC[C@@](C)(C(=O)O)[C@@H]1C/C2=N\OCCCCCNC(=O)c1cccs1` it was 104%; in that of `CC(C)c1cc2c(cc1Br)[C@@]1(C)CCC[C@@](C)(C(=O)O)[C@@H]1C/C2=N\OCCNC(=O)c1cccc(C(F)(F)F)c1`, 113%.
For the molecule `CC(C)c1cc2c(cc1Br)[C@@]1(C)CCC[C@@](C)(C(=O)O)[C@@H]1C/C2=N\OCCNC(=O)c1c(F)c(F)c(F)c(F)c1F`, the Activity came out at 136%.
Turning to `CC(C)c1cc2c(cc1Br)[C@@]1(C)CCC[C@@](C)(C(=O)O)[C@@H]1C/C2=N\OCCNC(=O)c1ccc(Cl)s1`, the Activity was determined as 103%.
Turning to `COc1ccc(C(=O)NCCO/N=C2\C[C@H]3[C@](C)(C(=O)O)CCC[C@]3(C)c3cc(Br)c(C(C)C)cc32)cc1`, the Activity amounted to 102%.
In the case of `CC(C)c1cc2c(cc1Br)[C@@]1(C)CCC[C@@](C)(C(=O)O)[C@@H]1C/C2=N\OCCNC(=O)c1ccsc1` it was 128%.
In the case of `CC(C)c1cc2c(cc1Br)[C@@]1(C)CCC[C@@](C)(C(=O)O)[C@@H]1C/C2=N\OCCN` it was 98.6%; in that of `CC(C)c1cc2c(cc1Br)[C@@]1(C)CCC[C@@](C)(C(=O)O)[C@@H]1C/C2=N\OCCNC(=O)c1cc2ccccc2s1`, 85.7%.
In the case of `CC(C)c1cc2c(cc1Br)[C@@]1(C)CCC[C@@](C)(C(=O)O)[C@@H]1C/C2=N\OCCNC(=O)c1cc(Br)cs1` it was 106%; in that of `CC(C)c1cc2c(cc1Br)[C@@]1(C)CCC[C@@](C)(C(=O)O)[C@@H]1C/C2=N\OCCNC(=O)c1ccccn1`, 108%.
On to `CCc1ccc(C(=O)NCCO/N=C2\C[C@H]3[C@](C)(C(=O)O)CCC[C@]3(C)c3cc(Br)c(C(C)C)cc32)cc1`, for which the Activity came to 68%.
In the case of `Cc1ccc(C(=O)NCCO/N=C2\C[C@H]3[C@](C)(C(=O)O)CCC[C@]3(C)c3cc(Br)c(C(C)C)cc32)s1` it was 101%.
In the case of `CC(C)c1cc2c(cc1Br)[C@@]1(C)CCC[C@@](C)(C(=O)O)[C@@H]1C/C2=N\OCCNC(=O)c1ccc[nH]1` it was 124%; in that of `CC(C)c1cc2c(cc1Br)[C@@]1(C)CCC[C@@](C)(C(=O)O)[C@@H]1C/C2=N\OCCNC(=O)c1cccs1`, 267%; in that of `CC(C)c1cc2c(cc1Br)[C@@]1(C)CCC[C@@](C)(C(=O)O)[C@@H]1C/C2=N\OCCNC(=O)c1ccco1`, 151%.
Turning to `CC(C)C(=O)NCCO/N=C1\C[C@H]2[C@](C)(C(=O)O)CCC[C@]2(C)c2cc(Br)c(C(C)C)cc21`, the Activity is 142%.
In the case of `CC(C)c1cc2c(cc1Br)[C@@]1(C)CCC[C@@](C)(C(=O)O)[C@@H]1C/C2=N\OCCCNC(=O)c1cccs1` it was 136%; in that of `CC(C)c1cc2c(cc1Br)[C@@]1(C)CCC[C@@](C)(C(=O)O)[C@@H]1C/C2=N\OCCNC(=O)c1ccc(Br)s1`, 107%.
Under `CC(C)c1cc2c(cc1Br)[C@@]1(C)CCC[C@@](C)(C(=O)O)[C@@H]1C/C2=N\OCCNC(=O)c1ccccc1` stands 121%.
For `CC(C)c1cc2c(cc1Br)[C@@]1(C)CCC[C@@](C)(C(=O)O)[C@@H]1C/C2=N\OCCNC(=O)c1ccccc1C(F)(F)F`, the Activity worked out at 123%.
On to `COc1ccccc1C(=O)NCCO/N=C1\C[C@H]2[C@](C)(C(=O)O)CCC[C@]2(C)c2cc(Br)c(C(C)C)cc21`, for which the Activity came out at 101%.
Under `CC(C)c1cc2c(cc1Br)[C@@]1(C)CCC[C@@](C)(C(=O)O)[C@@H]1C/C2=N\OCCNC(=O)c1nccs1` stands 204%.
